Drawing on BindingDB's records for doi:10.1016/j.bmc.2019.05.024 (Charles University, 2019), this text covers Ki for 20 compounds.

As usually defined, the pKi is −log10 of the Ki, conventionally taken in molar units.

Structures are written as SMILES. pKi: −log10 of the molar value.

The experiment is described as follows: Inhibition of influenza A virus chicken/Nakorn-Patom/Thailand/CU-K2-2004 Neuraminidase N1 at pH 7.4 by DIANA assay.
With `CCC(CC)O[C@@H]1C=C(C(=O)O)C[C@H](NCc2cn(CC(C)(CO)CO)nn2)[C@H]1NC(C)=O`, the pKi was 6.15.
`CCC(CC)O[C@@H]1C=C(C(=O)O)C[C@H](n2cc(CNc3ccc(C(N)=O)c(C(F)(F)F)c3)nn2)[C@H]1NC(C)=O` had a pKi of 5.30.
As for `CCC(CC)O[C@@H]1C=C(C(=O)O)C[C@H](NCc2cn(CCN3CCS(=O)(=O)CC3)nn2)[C@H]1NC(C)=O`, the figure is 5.21.
As for `CCC(CC)O[C@@H]1C=C(C(=O)O)C[C@H](NCc2cn(CC(=O)O)nn2)[C@H]1NC(C)=O`, the figure is 5.37; as for `CCC(CC)O[C@@H]1C=C(C(=O)O)C[C@H](NCc2cn(CC(=O)NC)nn2)[C@H]1NC(C)=O`, 6.13; as for `CCC(CC)O[C@@H]1C=C(C(=O)O)C[C@H](NCc2cn(CCO)nn2)[C@H]1NC(C)=O`, 6.33.
For `CCC(CC)O[C@@H]1C=C(C(=O)O)C[C@H](n2cc(C[C@H](N)C(=O)O)nn2)[C@H]1NC(C)=O` the value was 4.60.
In the case of `CCC(CC)O[C@@H]1C=C(C(=O)O)C[C@H](n2cc(-c3ccsc3)nn2)[C@H]1NC(C)=O`, the pKi is 5.40. This pKi lies 0.80 log units higher than the previous one.
In the case of `CCC(CC)O[C@@H]1C=C(C(=O)O)C[C@H](n2cc(CNc3ccccc3C(N)=O)nn2)[C@H]1NC(C)=O`, the negative logarithm of the Ki (pKi) was 5.29. The pKi values of the last two compounds are within 0.2 log units of each other.
With `CCC(CC)O[C@@H]1C=C(C(=O)O)C[C@H](n2cc(CNc3cccc(C(F)(F)F)c3)nn2)[C@H]1NC(C)=O`, the pKi is 5.72.
As for `CCC(CC)O[C@@H]1C=C(C(=O)O)C[C@H](n2cc(CNc3ccccc3)nn2)[C@H]1NC(C)=O`, the figure is 5.30; as for `CCC(CC)O[C@@H]1C=C(C(=O)O)C[C@H](n2cc(CO)nn2)[C@H]1NC(C)=O`, 5.28.
As for `CCC(CC)O[C@@H]1C=C(C(=O)O)C[C@H](n2cc(CNc3ccc(NC(C)=O)cc3)nn2)[C@H]1NC(C)=O`, the figure is 5.25.
In turn, `CCC(CC)O[C@@H]1C=C(C(=O)O)C[C@H](NCc2cn(CC(=O)N(C)C)nn2)[C@H]1NC(C)=O` gave a negative-log Ki (pKi) of 5.51.
As for `CCC(CC)O[C@@H]1C=C(C(=O)O)C[C@H](n2cc(-c3cccs3)nn2)[C@H]1NC(C)=O`, the pKi is 5.15.
For `CCC(CC)O[C@@H]1C=C(C(=O)O)C[C@H](n2cc(CNc3cc(F)ccc3OC)nn2)[C@H]1NC(C)=O` the value was 4.96.
As for `CCC(CC)O[C@@H]1C=C(C(=O)O)C[C@H](n2cc(COCC(C)(CO)CO)nn2)[C@H]1NC(C)=O`, the figure is 4.31.
For `CCC(CC)O[C@H]1CC(C(=O)O)=C[C@@H](n2cc(CN3CCS(=O)(=O)CC3)nn2)[C@@H]1NC(C)=O` the value was 4.03; for `CCC(CC)O[C@@H]1C=C(C(=O)O)C[C@H](n2cc(CN(C)c3ccc(OC)cc3)nn2)[C@H]1NC(C)=O`, 5.09.
In turn, `CCC(CC)O[C@@H]1C=C(C(=O)O)C[C@H](n2cc(C[C@@]3(C(=O)O)CCCN3)nn2)[C@H]1NC(C)=O` had a pKi of 4.31.
